From patent publication US20260285850A1, “SUBSTITUTED OXAZOLIDINONES AND IMIDAZOLINONES AS HERBICIDES” (FMC CORPORATION, priority 2023, published 2026)

What was measured:
Assay type in all cases: in vivo
[1] = test system: barnyardgrass (Echinochloa crus-galli); assay: Test A preemergence soil spray, visual injury rating 0-100; conditions: 10 days
Summary of the method: (§1)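 Loam-sand pots got test material in surfactant-containing solvent, either as a directed soil spray before emergence or on plants at the one- to two-leaf stage. Visual injury (0-100) was read after ten greenhouse days.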

[2] = test system: blackgrass (Alopecurus myosuroides); assay: as above; conditions: 10 days
Summary of the method: as §1

corn (Zea mays) [3] = assay: as above; conditions: 10 days
Summary of the method: as §1

[4] = test system: green foxtail (Setaria viridis); assay: as above; conditions: 10 days
Summary of the method: as §1

kochia (Bassia scoparia) [5] = assay: as above; conditions: 10 days
Summary of the method: as §1

[6] = test system: oat, wild (wild oat, Avena fatua); assay: as above; conditions: 10 days
Summary of the method: as §1

[7] = test system: palmer (palmer amaranth, palmer pigweed, Amaranthus palmeri); assay: as above; conditions: 10 days
Summary of the method: as §1

[8] = test system: ragweed (common ragweed, Ambrosia artemisiifolia); assay: as above; conditions: 10 days
Summary of the method: as §1

[9] = test system: ryegrass, Italian (italian ryegrass, Lolium multiflorum); assay: as above; conditions: 10 days
Summary of the method: as §1

soybean (Glycine max) [10] = assay: as above; conditions: 10 days
Summary of the method: as §1

[11] = test system: wheat (Triticum aestivum); assay: as above; conditions: 10 days
Summary of the method: as §1

[12] = test system: barnyardgrass (Echinochloa crus-galli); assay: Test A postemergence application, visual injury rating 0-100
Summary of the method: as §1

[13] = test system: blackgrass (Alopecurus myosuroides); assay: as above
Summary of the method: as §1

corn (Zea mays) [14] = assay: as above
Summary of the method: as §1

[15] = test system: galium (catchweed bedstraw, Galium aparine); assay: as above
Summary of the method: as §1

[16] = test system: green foxtail (Setaria viridis); assay: as above
Summary of the method: as §1

[17] = test system: horseweed (Erigeron canadensis); assay: as above
Summary of the method: as §1

kochia (Bassia scoparia) [18] = assay: as above
Summary of the method: as §1

[19] = test system: oat, wild (wild oat, Avena fatua); assay: as above
Summary of the method: as §1

[20] = test system: palmer (palmer amaranth, palmer pigweed, Amaranthus palmeri); assay: as above
Summary of the method: as §1

[21] = test system: ragweed (common ragweed, Ambrosia artemisiifolia); assay: as above
Summary of the method: as §1

[22] = test system: ryegrass, Italian (italian ryegrass, Lolium multiflorum); assay: as above
Summary of the method: as §1

soybean (Glycine max) [23] = assay: as above
Summary of the method: as §1

[24] = test system: wheat (Triticum aestivum); assay: as above
Summary of the method: as §1

[25] = test system: barnyardgrass (Echinochloa crusgalli); assay: Test B flooded paddy test, visual plant response rating 0-100; conditions: 250 g ai/ha, Flood, applied to paddy water, evaluated after 13 days
Summary of the method: (§2)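 In this flooded assay, 2-leaf seedlings received compound through the water layer, kept at 3 cm over the soil. Plants were held 13 days in a greenhouse and then visually compared with control pots.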

[26] = test system: ducksalad (Heteranthera limosa); assay: as above; conditions: 250 g ai/ha, Flood, applied to paddy water, evaluated after 13 days
Summary of the method: as §2

rice (Oryza sativa) = assay: as above; conditions: 250 g ai/ha, Flood, applied to paddy water, evaluated after 13 days
Summary of the method: as §2

[27] = test system: sedge, umbrella (small-flower umbrella sedge, Cyperus difformis); assay: as above; conditions: 250 g ai/ha, Flood, applied to paddy water, evaluated after 13 days
Summary of the method: as §2

[28] = 62 g ai/ha, 0 = no effect, 100 = complete control
[29] = 62 g ai/ha, postemergence, 10 days, 0 = no effect, 100 = complete control
[30] = Postemergence, 16 g ai/ha, greenhouse 10 days, 0 no effect, 100 complete control

CC1(C(=O)NC2CC=C(C(=O)NS(=O)(=O)C(C)(C)C)C2)CN(c2cc(F)cc(F)c2)C(=O)O1 (racemic) [Compound 91]
Barnyardgrass plant response rating ([1]; 16 g ai/ha, 0 to 100 scale): 0
Barnyardgrass plant response rating (0-100) [1, 28]: 10
Blackgrass plant response rating ([2]; 16 g ai/ha, 0 to 100 scale): 0
Blackgrass plant response rating (0-100) [2, 28]: 0
Corn plant response rating (corn (Zea mays) [3]; 16 g ai/ha, 0 to 100 scale): 0
Corn plant response rating (0-100) (corn (Zea mays) [3]; [28]): 0
Foxtail, Green plant response rating ([4]; 16 g ai/ha, 0 to 100 scale): 0
Foxtail, Green plant response rating (0-100) [4, 28]: 0
Kochia plant response rating (kochia (Bassia scoparia) [5]; 16 g ai/ha, 0 to 100 scale): 0
Kochia plant response rating (0-100) (kochia (Bassia scoparia) [5]; [28]): 0
Oat, Wild plant response rating ([6]; 16 g ai/ha, 0 to 100 scale): 0
Oat, Wild plant response rating (0-100) [6, 28]: 0
Pigweed, Palmer plant response rating ([7]; 16 g ai/ha, 0 to 100 scale): 0
Pigweed, Palmer plant response rating (0-100) [7, 28]: 0
Ragweed plant response rating ([8]; 16 g ai/ha, 0 to 100 scale): 0
Ragweed plant response rating (0-100) [8, 28]: 0
Ryegrass, Italian plant response rating ([9]; 16 g ai/ha, 0 to 100 scale): 0
Ryegrass, Italian plant response rating (0-100) [9, 28]: 0
Soybean plant response rating (soybean (Glycine max) [10]; 16 g ai/ha, 0 to 100 scale): 0
Soybean plant response rating (0-100) (soybean (Glycine max) [10]; [28]): 0
Wheat plant response rating ([11]; 16 g ai/ha, 0 to 100 scale): 0
Wheat plant response rating (0-100) [11, 28]: 0
Barnyardgrass plant response rating (0-100) [12, 29]: 40
Barnyardgrass plant response rating (0 to 100 scale) [12, 30]: 0
Blackgrass plant response rating (0-100) [13, 29]: 10
Blackgrass plant response rating (0 to 100 scale) [13, 30]: 0
Corn plant response rating (0-100) (corn (Zea mays) [14]; [29]): 30
Corn plant response rating (0 to 100 scale) (corn (Zea mays) [14]; [30]): 0
Galium plant response rating (0-100) [15, 29]: 10
Galium plant response rating (0 to 100 scale) [15, 30]: 0
Foxtail, Green plant response rating (0-100) [16, 29]: 20
Foxtail, Green plant response rating (0 to 100 scale) [16, 30]: 0
Horseweed plant response rating (0-100) [17, 29]: 0
Horseweed plant response rating (0 to 100 scale) [17, 30]: 10
Kochia plant response rating (0-100) (kochia (Bassia scoparia) [18]; [29]): 40
Kochia plant response rating (0 to 100 scale) (kochia (Bassia scoparia) [18]; [30]): 0
Oat, Wild plant response rating (0-100) [19, 29]: 20
Oat, Wild plant response rating (0 to 100 scale) [19, 30]: 0
Pigweed, Palmer plant response rating (0-100) [20, 29]: 50
Pigweed, Palmer plant response rating (0 to 100 scale) [20, 30]: 0
Ragweed plant response rating (0-100) [21, 29]: 20
Ragweed plant response rating (0 to 100 scale) [21, 30]: 0
Ryegrass, Italian plant response rating (0-100) [22, 29]: 40
Ryegrass, Italian plant response rating (0 to 100 scale) [22, 30]: 0
Soybean plant response rating (0-100) (soybean (Glycine max) [23]; [29]): 30
Soybean plant response rating (0 to 100 scale) (soybean (Glycine max) [23]; [30]): 0
Wheat plant response rating (0-100) [24, 29]: 50
Wheat plant response rating (0 to 100 scale) [24, 30]: 0
Plant response rating, Barnyardgrass (0 to 100 scale, 0 is no effect and 100 is complete control) [25]: 0
Plant response rating, Ducksalad (0 to 100 scale, 0 is no effect and 100 is complete control) [26]: 0
Plant response rating, Rice (0 to 100 scale, 0 is no effect and 100 is complete control) (rice (Oryza sativa)): 0
Plant response rating, Sedge, Umbrella (0 to 100 scale, 0 is no effect and 100 is complete control) [27]: 0
